Each block holds one molecule with its values, some of them ahead of it. The source made the active and inactive calls. The rule behind the calls is not given here.
What was measured:
[1] = biological target: T1, hERG (KCNH2) (Homo sapiens, UniProt Q12809); experiment: Inhibition of human ERG expressed in HEK293 cells at 0.01 uM after 5 mins at -80 mV holding potential by patch clamp assay; assay type: cell-based; details: HEK293 cells expressing human ERG
[2] = biological target: T1, hERG (KCNH2); experiment: Inhibition of human ERG expressed in HEK293 cells at 0.1 uM after 5 mins at -80 mV holding potential by patch clamp assay; assay type: cell-based; details: HEK293 cells expressing human ERG
[3] = biological target: T1, hERG (KCNH2); experiment: Inhibition of human ERG expressed in HEK293 cells at 1 uM after 5 mins at -80 mV holding potential by patch clamp assay; assay type: cell-based; details: HEK293 cells expressing human ERG
[4] = biological target: T1, hERG (KCNH2); experiment: Inhibition of human ERG expressed in HEK293 cells at 10 uM after 5 mins at -80 mV holding potential by patch clamp assay; assay type: cell-based; details: HEK293 cells expressing human ERG
[5] = biological target: T2, Ryanodine receptor 2 (Homo sapiens, UniProt Q92736); experiment: Induction of FKBP12.6 re-binding to PKA-phosphorylated-RyR2 (unknown origin) after 30 mins in presence of [35S]-FKBP12.6 by liquid scintillation counting
T2 sequence (Q92736 whole entry): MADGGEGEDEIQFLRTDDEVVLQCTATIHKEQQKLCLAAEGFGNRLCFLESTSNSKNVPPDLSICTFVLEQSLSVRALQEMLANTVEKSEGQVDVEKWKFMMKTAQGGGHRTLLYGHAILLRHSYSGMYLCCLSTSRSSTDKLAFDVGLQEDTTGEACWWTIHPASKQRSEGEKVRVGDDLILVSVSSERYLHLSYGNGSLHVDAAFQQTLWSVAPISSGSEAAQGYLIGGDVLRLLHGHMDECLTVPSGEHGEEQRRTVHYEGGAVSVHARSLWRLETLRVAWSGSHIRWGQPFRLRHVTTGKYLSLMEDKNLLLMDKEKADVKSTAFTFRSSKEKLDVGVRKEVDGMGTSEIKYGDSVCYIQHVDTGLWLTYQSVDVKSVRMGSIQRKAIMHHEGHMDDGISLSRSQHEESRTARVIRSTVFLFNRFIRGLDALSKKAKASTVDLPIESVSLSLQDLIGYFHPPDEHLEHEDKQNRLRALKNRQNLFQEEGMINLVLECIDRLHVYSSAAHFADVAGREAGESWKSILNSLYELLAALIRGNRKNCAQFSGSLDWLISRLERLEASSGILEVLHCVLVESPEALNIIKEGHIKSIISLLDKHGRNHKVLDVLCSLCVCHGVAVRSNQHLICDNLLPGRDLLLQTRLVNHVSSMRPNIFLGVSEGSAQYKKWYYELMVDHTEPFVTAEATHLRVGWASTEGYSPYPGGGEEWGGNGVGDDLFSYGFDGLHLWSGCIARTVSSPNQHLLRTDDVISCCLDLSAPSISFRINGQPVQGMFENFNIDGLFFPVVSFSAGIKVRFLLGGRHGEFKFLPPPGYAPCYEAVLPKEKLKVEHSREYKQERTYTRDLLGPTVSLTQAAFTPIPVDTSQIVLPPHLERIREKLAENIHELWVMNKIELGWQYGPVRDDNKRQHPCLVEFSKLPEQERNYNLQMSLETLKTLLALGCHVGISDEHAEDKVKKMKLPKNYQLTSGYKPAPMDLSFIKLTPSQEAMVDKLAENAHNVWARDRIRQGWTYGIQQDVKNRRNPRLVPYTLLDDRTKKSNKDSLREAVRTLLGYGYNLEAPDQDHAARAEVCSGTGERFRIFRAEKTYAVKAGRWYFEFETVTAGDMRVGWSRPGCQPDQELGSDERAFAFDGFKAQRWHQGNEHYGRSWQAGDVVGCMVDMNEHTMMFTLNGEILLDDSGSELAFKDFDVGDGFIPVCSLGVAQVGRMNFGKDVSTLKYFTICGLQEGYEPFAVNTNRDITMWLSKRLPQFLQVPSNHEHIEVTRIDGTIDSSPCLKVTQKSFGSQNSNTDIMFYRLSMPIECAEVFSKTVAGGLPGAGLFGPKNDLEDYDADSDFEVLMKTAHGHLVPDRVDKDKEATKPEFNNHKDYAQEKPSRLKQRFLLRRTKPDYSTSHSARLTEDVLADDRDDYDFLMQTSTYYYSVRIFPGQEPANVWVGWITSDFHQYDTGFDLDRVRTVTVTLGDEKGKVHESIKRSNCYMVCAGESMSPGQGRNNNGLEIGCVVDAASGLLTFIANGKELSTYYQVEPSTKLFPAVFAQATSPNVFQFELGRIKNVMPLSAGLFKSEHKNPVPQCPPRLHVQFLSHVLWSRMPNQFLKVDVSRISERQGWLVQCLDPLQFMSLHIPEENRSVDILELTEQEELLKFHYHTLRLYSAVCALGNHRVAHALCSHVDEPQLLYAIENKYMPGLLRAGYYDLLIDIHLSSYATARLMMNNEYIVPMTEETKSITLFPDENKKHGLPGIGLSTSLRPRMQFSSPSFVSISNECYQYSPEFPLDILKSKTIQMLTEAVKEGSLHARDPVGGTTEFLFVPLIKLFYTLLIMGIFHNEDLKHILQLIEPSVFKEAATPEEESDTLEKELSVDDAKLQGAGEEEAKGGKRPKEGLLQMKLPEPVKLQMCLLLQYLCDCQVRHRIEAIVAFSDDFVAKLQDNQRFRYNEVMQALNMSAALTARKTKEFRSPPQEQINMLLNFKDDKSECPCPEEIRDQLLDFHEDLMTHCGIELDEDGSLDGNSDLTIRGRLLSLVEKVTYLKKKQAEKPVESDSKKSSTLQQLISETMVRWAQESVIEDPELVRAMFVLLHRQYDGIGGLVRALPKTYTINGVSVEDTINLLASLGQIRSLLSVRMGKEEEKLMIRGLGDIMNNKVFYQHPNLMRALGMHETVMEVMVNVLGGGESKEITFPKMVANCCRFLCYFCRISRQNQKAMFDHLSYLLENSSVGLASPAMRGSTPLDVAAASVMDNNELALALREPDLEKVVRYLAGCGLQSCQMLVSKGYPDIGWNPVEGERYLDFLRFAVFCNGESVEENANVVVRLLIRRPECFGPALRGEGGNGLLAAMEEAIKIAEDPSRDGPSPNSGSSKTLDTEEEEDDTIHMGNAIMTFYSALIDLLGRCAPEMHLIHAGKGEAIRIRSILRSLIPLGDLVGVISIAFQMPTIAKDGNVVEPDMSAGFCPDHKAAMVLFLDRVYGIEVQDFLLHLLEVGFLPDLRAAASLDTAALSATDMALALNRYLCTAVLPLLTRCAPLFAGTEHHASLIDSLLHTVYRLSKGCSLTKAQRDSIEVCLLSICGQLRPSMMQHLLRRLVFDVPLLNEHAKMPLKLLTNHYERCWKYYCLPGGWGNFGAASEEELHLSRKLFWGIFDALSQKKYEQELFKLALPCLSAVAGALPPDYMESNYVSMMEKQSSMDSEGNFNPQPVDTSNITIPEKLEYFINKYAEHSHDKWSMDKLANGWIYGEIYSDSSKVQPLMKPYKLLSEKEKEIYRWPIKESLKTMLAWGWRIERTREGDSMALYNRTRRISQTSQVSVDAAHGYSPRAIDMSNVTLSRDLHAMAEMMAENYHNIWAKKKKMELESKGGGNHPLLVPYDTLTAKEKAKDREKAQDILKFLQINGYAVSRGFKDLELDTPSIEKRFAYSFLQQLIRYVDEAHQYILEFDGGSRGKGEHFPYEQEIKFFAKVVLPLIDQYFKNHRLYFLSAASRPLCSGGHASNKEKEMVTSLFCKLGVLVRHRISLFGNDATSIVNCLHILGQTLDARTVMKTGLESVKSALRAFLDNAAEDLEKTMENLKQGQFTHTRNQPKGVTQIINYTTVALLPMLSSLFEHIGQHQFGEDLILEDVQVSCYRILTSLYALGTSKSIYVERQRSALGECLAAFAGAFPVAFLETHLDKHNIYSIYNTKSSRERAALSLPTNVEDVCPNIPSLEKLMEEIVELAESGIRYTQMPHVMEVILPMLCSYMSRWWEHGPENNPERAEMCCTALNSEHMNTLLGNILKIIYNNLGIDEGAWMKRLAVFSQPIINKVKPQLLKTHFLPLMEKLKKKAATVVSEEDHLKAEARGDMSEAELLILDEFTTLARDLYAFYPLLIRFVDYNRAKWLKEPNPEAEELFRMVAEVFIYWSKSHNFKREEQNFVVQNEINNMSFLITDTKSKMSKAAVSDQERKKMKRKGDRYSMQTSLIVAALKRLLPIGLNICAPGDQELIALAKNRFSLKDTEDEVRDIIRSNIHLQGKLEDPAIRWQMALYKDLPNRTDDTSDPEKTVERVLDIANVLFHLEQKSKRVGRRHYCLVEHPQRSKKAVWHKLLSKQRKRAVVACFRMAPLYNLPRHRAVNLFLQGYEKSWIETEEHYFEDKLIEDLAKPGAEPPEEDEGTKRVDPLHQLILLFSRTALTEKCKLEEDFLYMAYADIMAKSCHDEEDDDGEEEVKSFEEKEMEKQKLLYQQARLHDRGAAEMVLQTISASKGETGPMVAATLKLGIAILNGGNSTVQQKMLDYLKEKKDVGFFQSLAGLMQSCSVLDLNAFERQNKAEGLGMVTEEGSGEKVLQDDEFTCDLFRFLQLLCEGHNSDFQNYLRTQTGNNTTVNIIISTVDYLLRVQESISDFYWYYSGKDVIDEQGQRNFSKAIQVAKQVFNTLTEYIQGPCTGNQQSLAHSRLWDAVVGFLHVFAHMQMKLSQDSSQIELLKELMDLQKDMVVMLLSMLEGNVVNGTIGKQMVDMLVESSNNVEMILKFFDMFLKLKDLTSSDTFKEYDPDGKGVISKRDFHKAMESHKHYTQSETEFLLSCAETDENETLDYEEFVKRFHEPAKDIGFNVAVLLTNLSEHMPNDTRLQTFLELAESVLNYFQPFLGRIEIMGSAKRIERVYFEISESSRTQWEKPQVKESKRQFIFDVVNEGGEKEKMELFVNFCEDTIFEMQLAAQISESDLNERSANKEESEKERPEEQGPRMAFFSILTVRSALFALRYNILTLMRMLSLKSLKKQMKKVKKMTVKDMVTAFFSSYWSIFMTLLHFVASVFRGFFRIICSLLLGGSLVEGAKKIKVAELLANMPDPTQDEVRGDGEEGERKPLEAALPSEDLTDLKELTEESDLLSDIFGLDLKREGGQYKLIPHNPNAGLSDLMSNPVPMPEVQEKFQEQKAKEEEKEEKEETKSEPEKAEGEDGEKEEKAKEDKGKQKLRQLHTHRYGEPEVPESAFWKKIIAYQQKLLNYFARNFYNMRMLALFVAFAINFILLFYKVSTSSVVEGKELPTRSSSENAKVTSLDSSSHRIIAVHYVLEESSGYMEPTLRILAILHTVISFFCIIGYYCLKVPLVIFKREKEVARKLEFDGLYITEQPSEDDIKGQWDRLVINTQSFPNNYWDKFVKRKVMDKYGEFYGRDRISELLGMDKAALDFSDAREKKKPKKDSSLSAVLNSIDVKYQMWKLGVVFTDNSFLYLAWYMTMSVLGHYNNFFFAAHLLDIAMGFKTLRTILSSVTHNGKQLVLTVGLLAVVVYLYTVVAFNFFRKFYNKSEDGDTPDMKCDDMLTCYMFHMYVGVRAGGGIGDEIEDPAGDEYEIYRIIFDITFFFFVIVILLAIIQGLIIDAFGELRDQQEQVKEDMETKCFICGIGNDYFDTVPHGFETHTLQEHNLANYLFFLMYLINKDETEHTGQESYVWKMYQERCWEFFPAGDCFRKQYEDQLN

[6] = species: Mus musculus; experiment: Induction of cardiac function improvement in myocardial infarction-induced acute heart failure mouse model at plasma concentration 200 nM after 7 days post myocardial infarction; assay type: functional
[7] = test system: Mus musculus; experiment: Antiarrhythmic activity in haploinsufficient FKBP12.6 expressing mouse assessed as plasma concentration showing prevention of cardiac arrhythmias dosed via osmotic mini-pump under testing exercise followed by epinephrine injection relative to control; assay type: functional, organism-based
[8] = species: Mus musculus; experiment: Induction of cardiac function improvement in myocardial infarction-induced acute heart failure mouse model subjected to permanent ligation of left anterior descending coronary artery assessed as increase in cardiac contractility at plasma concentration 200 nM after 7 days post myocardial infarction; assay type: functional
[9] = test system: Mus musculus; experiment: Antiarrhythmic activity in haploinsufficient FKBP12.6 expressing mouse assessed as plasma concentration showing prevention of sudden cardiac death dosed via osmotic mini-pump under testing exercise followed by epinephrine injection relative to control; assay type: functional, organism-based
[10] = species: Mus musculus; experiment: Antiarrhythmic activity in haploinsufficient FKBP12.6 expressing mouse assessed as reduction in sustained ventricular tachycardia at 0.2 to 1 uM under testing exercise followed by epinephrine injection relative to control; assay type: functional
[11] = biological target: T2, Ryanodine receptor 2; experiment: Induction of calstabin-2 binding to RyR2 P2328S mutant (unknown origin) at 0.1 umol/L
[12] = biological target: T2, Ryanodine receptor 2; experiment: Induction of FKBP12.6 re-binding to PKA-phosphorylated-RyR2 (unknown origin) at 10 to 1000 nM after 30 mins in presence of [35S]-FKBP12.6 by liquid scintillation counting
[13] = species: Mus musculus; experiment: Induction of cardiac function improvement in myocardial infarction-induced acute heart failure mouse model subjected to permanent ligation of left anterior descending coronary artery assessed as increase in fractional shortening at plasma concentration of 100 to 200 nM after 2 weeks post myocardial infarction by echocardiography; assay type: functional
[14] = biological target: T2, Ryanodine receptor 2; experiment: Induction of normalization of single channel closed state of PKA phosphorylated RyR2 P2328S mutant (unknown origin) assessed as channel open probability level at 0.1 umol/L (reference value: 14.4%)
[15] = biological target: T2, Ryanodine receptor 2; experiment: Induction of normalization of single channel closed state of wild type PKA phosphorylated RyR2 (unknown origin) assessed as channel open probability at 0.1 umol/L relative to control
[16] = biological target: Ryanodine receptor 1 (Mus musculus) (UniProt E9PZQ0); experiment: Induction of calstabin-2 binding to RyR1 in mouse skeletal muscle at >50 nM
[17] = test system: Mus musculus; experiment: Improvement in soleus muscle fatigability in myocardial infarction-induced heart failure calstabin2-deficient knockout mouse at 0.5 mg/kg/day relative to control; assay type: functional, organism-based
[18] = test system: Mus musculus; experiment: Reduction in PKA-phosphorylation of RyR2 in myocardial infarction-induced heart failure mouse model at 0.5 mg/kg/hr after 28 days post myocardial infarction; assay type: functional, organism-based
[19] = biological target: Ryanodine receptor 1 (Mus musculus) (UniProt E9PZQ0); experiment: Induction of normalization of RYR1 function in mdx dystrophin deficient mouse soleus muscle assessed as increase in average channel open dwell time at 1 uM; assay type: tissue-based
[20] = biological target: Ryanodine receptor 1 (Mus musculus) (UniProt E9PZQ0); experiment: Normalization of RYR1 in myocardial infarction-induced heart failure mouse soleus muscle assessed as increase in average channel open dwell time; assay type: tissue-based
[21] = biological target: Ryanodine receptor 1 (Mus musculus) (UniProt E9PZQ0); experiment: Induction of normalization of RYR1 function in mdx dystrophin deficient mouse soleus muscle assessed as increase in channel open probability at 1 uM; assay type: tissue-based
[22] = Cardiotoxicity in haploinsufficient FKBP12.6 expressing mouse assessed as reduction in non-sustained ventricular tachycardia at 1 uM under testing exercise followed by epinephrine injection relative to control; assay type: toxicity; details: in vivo
[23] = Cardiotoxicity in haploinsufficient FKBP12.6 expressing mouse implanted with osmotic mini-pump assessed as reduction in resting heart rate in at 0.5 mg/kg/hr for 7 hrs; assay type: toxicity, organism-based; details: in vivo
[24] = biological target: Ryanodine receptor 1 (Mus musculus) (UniProt E9PZQ0); experiment: Induction of calstabin-1 binding to PKA-phosphorylated RyR1 in mouse skeletal muscle at >50 nM
[25] = biological target: Ryanodine receptor 1 (Mus musculus) (UniProt E9PZQ0); experiment: Induction of normalization of RYR1 function in mdx dystrophin deficient mouse soleus muscle assessed as decrease in average channel close dwell time at 1 uM; assay type: tissue-based
[26] = species: Mus musculus; experiment: Antiarrhythmic activity in haploinsufficient FKBP12.6 expressing mouse assessed as reduction in sustained ventricular tachycardia at 1 uM under testing exercise followed by epinephrine injection relative to control; assay type: functional
[27] = Cardiotoxicity in FKBP12.6 deficient mouse implanted with osmotic mini-pump assessed as reduction in resting heart rate in at 0.5 mg/kg/hr for 7 hrs; assay type: toxicity, organism-based; details: in vivo
[28] = biological target: Ryanodine receptor 1 (Mus musculus) (UniProt E9PZQ0); experiment: Normalization of RYR1 in myocardial infarction-induced heart failure mouse soleus muscle assessed as decrease in average channel close dwell time; assay type: tissue-based
[29] = biological target: Ryanodine receptor 1 (Mus musculus) (UniProt E9PZQ0); experiment: Inhibition of PKA-induced RyR1 phosphorylation in myocardial infarction-induced heart failure mouse soleus muscle at 0.5 mg/kg/day dosed via implantable osmotic minipumps; assay type: organism-based
[30] = biological target: Ryanodine receptor 1 (Mus musculus) (UniProt E9PZQ0); experiment: Induction of calstabin-1 binding to RYR1 in myocardial infarction-induced heart failure wild type mouse soleus muscle at 0.5 mg/kg/day dosed via implantable osmotic minipumps; assay type: organism-based
[31] = test system: Mus musculus; experiment: Improvement in soleus muscle fatigability in myocardial infarction-induced heart failure mouse model at 0.5 mg/kg/day relative to control; assay type: functional, organism-based
[32] = biological target: Ryanodine receptor 1 (Mus musculus) (UniProt E9PZQ0); experiment: Induction of calstabin-2 binding to PKA-phosphorylated RyR1 in mouse skeletal muscle at >50 nM
[33] = species: Mus musculus; experiment: Reduction in RyR2 channel opening probability in haploinsufficient FKBP12.6+/- mouse in the presence of […]; assay type: functional
[34] = biological target: Ryanodine receptor 1 (Mus musculus) (UniProt E9PZQ0); experiment: Induction of calstabin-1 binding to RyR1 in mouse skeletal muscle at >50 nM
[35] = biological target: Ryanodine receptor 1 (Mus musculus) (UniProt E9PZQ0); experiment: Induction of calstabin-1 binding to RYR1 in myocardial infarction-induced heart failure calsiabin2-/- mouse soleus muscle at 0.5 mg/kg/day dosed via implantable osmotic minipumps; assay type: organism-based
[36] = biological target: L-type calcium channel (Mus musculus, UniProt Q01815+Q02789+Q99246+Q9JIS7); experiment: Inhibition of L-type Ca2+ channel in mouse cardiomyocytes at holding potential of -80 or -40 mV by whole cell patch clamp assay; assay type: cell-based
[37] = Cardiotoxicity in haploinsufficient FKBP12.6 expressing mouse assessed as reduction in non-sustained ventricular tachycardia at 0.2 to 1 uM under testing exercise followed by epinephrine injection relative to control; assay type: toxicity; details: in vivo

Structure (SMILES): COc1ccc2c(c1)CN(C(=O)c1ccc(N=[N+]=[N-])cc1O)CCS2
inhibition at 5 min, 0.01 µM [1]: 1.3%
inhibition at 5 min, 0.1 µM [2]: 3.6%
inhibition at 5 min, 1 µM [3]: 4.1%
inhibition at 5 min, 10 µM [4]: 14%

Structure (SMILES): COC(=O)C(=O)N1CCSc2ccc(OC)cc2C1
inhibition at 5 min, 0.01 µM [1]: 0.2%
inhibition at 5 min, 0.1 µM [2]: 7.3%
inhibition at 5 min, 1 µM [3]: 2.7%
inhibition at 5 min, 10 µM [4]: 13.6%

Structure (SMILES): COc1ccc2c(c1)CN([P@](=O)(OC)c1ccccc1)CCS2
EC50 [5]: 182 nM

EC50 [5]: 50 nM
Structure (SMILES): C=CC(=O)N1CCSc2ccc(OC)cc2C1

Structure (SMILES): COc1ccc2c(c1)CN(C)CCS2
inhibition at 5 min, 0.01 µM [1]: 2.9%
inhibition at 5 min, 0.1 µM [2]: 4%
inhibition at 5 min, 1 µM [3]: 6.2%
inhibition at 5 min, 10 µM [4]: 32.1%

Structure (SMILES): O=C(O)C(=O)N1CCSc2ccccc2C1
inhibition at 5 min, 0.01 µM [1]: 1.3%
inhibition at 5 min, 0.1 µM [2]: 7.5%
inhibition at 5 min, 1 µM [3]: 3.6%
inhibition at 5 min, 10 µM [4]: 4.1%

Structure (SMILES): O=C(NO)N1CCSc2ccccc2C1
inhibition at 5 min, 0.01 µM [1]: 1.9%
inhibition at 5 min, 0.1 µM [2]: 4.8%
inhibition at 5 min, 1 µM [3]: 1.3%
inhibition at 5 min, 10 µM [4]: 9.5%

Structure (SMILES): COc1ccc2c(c1)CN([P@@](=O)(OC)c1ccccc1)CCS2
EC50 [5]: 174 nM

EC50 [5]: 77 nM
Structure (SMILES): COc1ccc2c(c1)CN(S(=O)(=O)Nc1cccnc1)CCS2

Activity [11]: Active
Activity [12]: Active
Activity [14]: 0.3%
Activity [15]: Active
Structure (SMILES): COc1ccc2c(c1)CN(C(=O)C(=O)O)CCS2
Activity [6]: Active
Cp [7]: 0.02 to 1 µM
Activity [8]: Active
Cp [9]: 0.02 to 1 µM
Activity [10]: Active
Activity [13]: Active

Activity [16]: Active
TIME [19]: 4.44e-07 h
TIME [20]: 4.17e-07 to 5e-07 h
Activity [21]: Active
Activity [24]: Active
TIME [25]: 0.000287 h
TIME [28]: 0.000435 to 0.000441 h
inhibition [29]: Active
Activity [30]: Active
Activity [32]: Active
Activity [34]: Active
Activity [35]: Active
Structure (SMILES): COc1ccc2c(c1)CN(C(=O)CCN1CCC(Cc3ccccc3)CC1)CCS2.Cl
Activity [17]: Active
Activity [18]: Active
Cp [7]: 1 µM
Cp [9]: 1 µM
Activity [22]: Non-Toxic
Activity [23]: Non-Toxic
Activity [26]: Active
Activity [27]: Non-Toxic
Activity [31]: Active
Activity [33]: Active

Structure (SMILES): COc1ccc2c(c1)CN(C(=O)C(=O)O)CCS2 [ALADORIAN SODIUM]
inhibition at 5 min, 0.01 µM [1]: 0.2%
inhibition at 5 min, 0.1 µM [2]: 6%
inhibition at 5 min, 1 µM [3]: 5.5%
inhibition at 5 min, 10 µM [4]: 6.7%

Structure (SMILES): COC(=O)C1=C(C)NC(C)=C(C(=O)OC)C1c1ccccc1[N+](=O)[O-] [NIFEDIPINE]
inhibition (INH) [36]: Active

Structure (SMILES): O=C(N1CCCCC1)N1CCSc2ccccc2C1
inhibition at 5 min, 0.01 µM [1]: 2.5%
inhibition at 5 min, 0.1 µM [2]: 4.2%
inhibition at 5 min, 1 µM [3]: 5.7%
inhibition at 5 min, 10 µM [4]: 47.3%

EC50 [5]: 100 nM
Structure (SMILES): c1ccc2c(c1)CNCCS2

Structure (SMILES): COc1ccc2c(c1)CN(C(=O)C(=O)O)CCS2(=O)=O
inhibition at 5 min, 0.01 µM [1]: 1.6%
inhibition at 5 min, 0.1 µM [2]: 2.5%
inhibition at 5 min, 1 µM [3]: 4.6%
inhibition at 5 min, 10 µM [4]: 7.4%

Structure (SMILES): COc1ccc2c(c1)CN(C(=O)N1CCCCC1)CCS2
inhibition at 5 min, 0.01 µM [1]: 1.8%
inhibition at 5 min, 0.1 µM [2]: 3.7%
inhibition at 5 min, 1 µM [3]: 6.1%
inhibition at 5 min, 10 µM [4]: 24.2%

Structure (SMILES): COc1ccc2c(c1)CN(C(=O)N1CCN(Cc3ccc4c(c3)OCO4)CC1)CCS2
inhibition at 5 min, 0.01 µM [1]: 2.7%
inhibition at 5 min, 0.1 µM [2]: 9.7%
inhibition at 5 min, 1 µM [3]: 29.6%
inhibition at 5 min, 10 µM [4]: 78%

Structure (SMILES): COc1ccc2c(c1)CN(C(=O)C(=O)O)CCS2 [ALADORIAN]
Activity [37]: Non-Toxic
